Measured values published in US10047105B2, “Gyrase inhibitors” (Merck Sharp & Dohme Corp., priority 2009, dated 2018).
Values after ≈ are worked out from the molar mass of the structure shown.

Legend:
Type in all cases: cell-based
S. aureus ATCC 13709 = test: MIC, antibacterial potency, S. aureus; settings: S. aureus (SA); in µg/mL
S. pneumoniae ATCC 51916 = test: MIC, S. pneumoniae; settings: S. pneumoniae (Spn52); in µg/mL
E. coli 8 ATCC 25922 = test: MIC, E. coli 8 (wt); settings: E. coli 8 (EC8)

SMILES | MIC, SA (S. aureus ATCC 13709) | MIC Spn52 (S. pneumoniae ATCC 51916) | MIC EC8 (E. coli 8 ATCC 25922) [µg/mL]
CCc1[nH]c2nc(Oc3ccc4nccnc4c3)nc(N3CC[C@@H](N)C3)c2c1Cl [701,000] | 4 | 8 | 64 (≈ 156 µM)
CCc1[nH]c2nc(Oc3ccc4nccnc4c3)nc(N3CC[C@@H](NC(C)=O)C3)c2c1Cl [701,001] | 4 | 8 | > 64
CCc1[nH]c2nc(Sc3ccc(/C=C/C(=O)O)c(F)c3)nc(N3CC[C@@H](N)C3)c2c1Cl [701,002] | 4 | >64 | > 64
CCc1[nH]c2nc(Sc3cnc4cccnc4c3)nc(N3CCNCCNCC3)c2c1Cl [701,003] | >64 | 32 | > 64
CCc1[nH]c2nc(Sc3cnc4cccnc4c3)nc(N3C[C@H](C(=O)NC4CNC4)[C@@H](N)C3)c2c1Cl [701,004] | 32 | >64 | > 64
CCc1[nH]c2nc(Sc3ccc4nccnc4c3)nc(N3CC[C@@H](N)C3)c2c1Cl [701,005] | <=0.5 | <=0.5 | 16 (≈ 37.6 µM)
CCc1[nH]c2nc(Sc3ccc4nccnc4c3)nc(N3C[C@@H]4C(N)[C@@H]4C3)c2c1Cl (stereo partly drawn) [701,006] | <=0.5 | <=0.5 | > 64
CCc1[nH]c2nc(Oc3ccc4nccnc4c3)nc(Oc3ccc4ncn(C)c4c3)c2c1Cl [701,007] | <=0.5 | 2 | > 64
CCc1[nH]c2nc(Sc3ccc4cc(C#N)c[n+]([O-])c4c3)nc(N3CC4C(N)C4C3)c2c1Cl (stereo not drawn) [701,010] | <=0.5 | 1 | > 16
CCc1[nH]c2nc(Oc3ccc4nccnc4c3)nc(N3CC4C(C3)C4NC(C)=O)c2c1Cl (stereo not drawn) [701,012] | 1 | 2 | > 64
CCc1[nH]c2nc(Sc3ccc4nc(N5CC(N)C5)cnc4c3)nc(N3C[C@@H]4C(N)[C@@H]4C3)c2c1Cl (stereo partly drawn) [701,013] | 1 | 2 | 16 (≈ 31.5 µM)
CCc1[nH]c2nc(Sc3ccc4nc(N5CC(N)C5)cnc4c3)nc(N3CC[C@@H](N)C3)c2c1Cl [701,014] | 4 | 8 | 32 (≈ 64.5 µM)
CCc1[nH]c2nc(Sc3cc(C(=O)NOC)c4ncccc4c3)nc(N3CC[C@@H](N)C3)c2c1Cl [701,015] | <=0.5 | 2 | > 64
CCc1[nH]c2nc(Sc3cnc4cccnc4c3)nc(N3C[C@H](N)[C@H](C(=O)N4CC(N)C4)C3)c2c1Cl [701,016] | >64 | >64 | > 64
CCc1[nH]c2nc(Sc3cnc4cccnc4c3)nc(N3C[C@H](N)[C@H](C(=O)NCC(C)C)C3)c2c1Cl [701,017] | 2 | 1 | > 64
CCc1[nH]c2nc(Sc3cnc4cccnc4c3)nc(N3C[C@H](N)[C@H](C(=O)NCC(C)O)C3)c2c1Cl (stereo partly drawn) [701,018] | >64 | 16 | > 64
CCc1[nH]c2nc(Sc3cnc4cccnc4c3)nc(N3C[C@H](N)[C@H](C(=O)NCC(O)CO)C3)c2c1Cl (stereo partly drawn) [701,019] | >32 | >32 | > 32
CCc1[nH]c2nc(Sc3cnc4cccnc4c3)nc(N3C[C@H](N)[C@H](C(=O)NCc4cccnc4)C3)c2c1Cl [701,020] | 4 | 2 | > 64
CCc1[nH]c2nc(Sc3cnc4cccnc4c3)nc(N3C[C@H](N)[C@H](C(=O)N[C@@H](CO)c4ccccc4)C3)c2c1Cl [701,021] | 4 | 4 | > 64
CCc1[nH]c2nc(Sc3cnc4cccnc4c3)nc(N3C[C@@H](N)[C@@H](C(=O)N[C@@H](CO)c4ccccc4)C3)c2c1Cl [701,022] | 4 | 2 | > 64
CCc1[nH]c2nc(Sc3cnc4cccnc4c3)nc(N3C[C@H](N)[C@H](C(=O)N4CC[C@@H](N)C4)C3)c2c1Cl [701,023] | >64 | >64 | > 64
CCc1[nH]c2nc(Sc3cnc4cccnc4c3)nc(N3C[C@H](N)[C@H](C(=O)Nc4nccs4)C3)c2c1Cl [701,024] | 2 | 2 | > 64
CCc1[nH]c2nc(Sc3cnc4ccc[n+]([O-])c4c3)nc(N3CC4CNC4C3)c2c1Cl (stereo not drawn) [701,025] | <=0.5 | 2 | 16 (≈ 35.2 µM)
CCc1[nH]c2nc(Sc3cnc4ccc[n+]([O-])c4c3)nc(N3CC4CCNC4C3)c2c1Cl (stereo not drawn) [701,026] | <=0.5 | 1 | 8 (≈ 17.1 µM)
CCc1[nH]c2nc(Sc3cnc4ccc[n+]([O-])c4c3)nc(N3CC(O)C3)c2c1Cl [701,027] | <=0.5 | 1 | > 64
CCNC(=O)NC1C2CN(c3nc(Sc4cnc5cccnc5c4)nc4[nH]c(CC)c(Cl)c34)CC21 (stereo not drawn) [701,028] | <=0.5 | <=0.5 | > 64

SMILES | MIC, SA (S. aureus ATCC 13709) | MIC Spn52 (S. pneumoniae ATCC 51916) | MIC EC8 (E. coli 8 ATCC 25922) [µg/mL]
CCc1[nH]c2nc(Oc3ccc4nccnc4c3)nc(N3CCOCC3)c2c1Cl [701,029] | 2 | 4 | > 64
CCc1[nH]c2nc(Oc3cnc4c(c3)ncn4C)nc(Oc3ccc4nccnc4c3)c2c1Br [701,030] | <=0.5 | <=0.5 | > 64
CCc1[nH]c2nc(Oc3cncc(C#N)c3)nc(N3CCOCC3)c2c1Cl [701,031] | <=0.5 | 2 | > 64
CCc1[nH]c2nc(Oc3cnc4c(c3)ncn4C)nc(N3CC[C@@H](NC(C)=O)C3)c2c1Br [701,032] | 8 | 8 | > 64
CCc1[nH]c2nc(Oc3cnc4c(c3)ncn4C)nc(N3CC[C@@H](N)C3)c2c1Cl [701,033] | >64 | >64 | > 64
CCc1[nH]c2nc(Oc3cnc4c(c3)ncn4C)nc(N3CC[C@@H](NC(C)=O)C3)c2c1Cl [701,034] | 4 | 4 | > 64
CCOC(=O)NCC1CCN(c2nc(Sc3cnc4cccnc4c3)nc3[nH]c(CC)c(Cl)c23)C1 (stereo not drawn) [701,035] | <=0.5 | <=0.5 | > 64
CCc1[nH]c2nc(Sc3cnc4ccc[n+]([O-])c4c3)nc(N3CC(N)C3)c2c1Cl [701,036] | <=0.5 | 2 | 16 (≈ 37.4 µM)
CCc1[nH]c2nc(Sc3cnc4ccc[n+]([O-])c4c3)nc(N(C)CCNC)c2c1Cl [701,037] | 8 | 16 | > 64
CCc1[nH]c2nc(Sc3cnc4ccc[n+]([O-])c4c3)nc(N3CC4(CNC4)C3)c2c1Cl [701,038] | 8 | 32 | 16 (≈ 35.2 µM)
CCc1[nH]c2nc(Sc3ccc4oc(C)nc4c3)nc(N3CC[C@@H](N)C3)c2c1Cl [701,039] | 8 | 8 | > 64
CCc1[nH]c2nc(Sc3ccc4c(OC)cc[n+]([O-])c4c3)nc(N3CC[C@@H](N)C3)c2c1Cl [701,040] | <=0.5 | 4 | 32 (≈ 67.9 µM)
CCc1[nH]c2nc(Oc3cncc(OC)c3)nc(N3CC4C(N)C4C3)c2c1Cl (stereo not drawn) [701,041] | 8 | 16 | > 32
CCc1[nH]c2nc(Sc3cnc4cccnc4c3)nc(N3CCC(CNS(C)(=O)=O)C3)c2c1Cl (stereo not drawn) [701,042] | <=0.5 | 1 | > 64
CCOC(=O)C(=O)NCC1CCN(c2nc(Sc3cnc4cccnc4c3)nc3[nH]c(CC)c(Cl)c23)C1 (stereo not drawn) [701,043] | 1 | >64 | > 64
CCc1[nH]c2nc(Sc3cnc4cccnc4c3)nc(N3CCC(CNC(C)=O)C3)c2c1Cl (stereo not drawn) [701,044] | <=0.5 | 1 | > 64
CCc1[nH]c2nc(Sc3cnc4cccnc4c3)nc(N3CCC(CNS(=O)(=O)c4ccccc4)C3)c2c1Cl (stereo not drawn) [701,045] | <=0.5 | 1 | > 64
CCc1[nH]c2nc(Sc3cnc4cccnc4c3)nc(N3CCC(CNS(=O)(=O)c4cnoc4C)C3)c2c1Cl (stereo not drawn) [701,046] | 2 | 4 | > 64
CCc1[nH]c2nc(Sc3cnc4cccnc4c3)nc(N3CCC(CNC(=O)c4nccs4)C3)c2c1Cl (stereo not drawn) [701,047] | <=0.5 | <=0.5 | > 64
CCc1[nH]c2nc(Sc3ccc4cc(C(=O)N5CC(O)C5)c(C)[n+]([O-])c4c3)nc(N3CC[C@@H](N)C3)c2c1Cl [701,048] | 16 | >64 | > 64
CCc1[nH]c2nc(Sc3ccc4cncnc4c3)nc(N3CC[C@@H](N)C3)c2c1Cl [701,049] | <=0.5 | <=0.5 | 8 (≈ 18.8 µM)
CCc1[nH]c2nc(Sc3ccc4cncnc4c3)nc(N3CC(N)C3)c2c1Cl [701,050] | <=0.5 | <=0.5 | 32 (≈ 77.7 µM)
CCc1[nH]c2nc(Sc3ccc4c[n+]([O-])cnc4c3)nc(N3CC[C@@H](N)C3)c2c1Cl [701,051] | 2 | 4 | > 32
CCc1[nH]c2nc(Oc3cncnc3)nc(N3CC4C(C3)C4NC(C)=O)c2c1Br (stereo not drawn) [701,052] | 4 | 8 | > 16
CCc1[nH]c2nc(Oc3ccc4cccnc4c3)nc(Oc3ccc4cccnc4c3)c2c1Br [701,054] | <=0.5 | 1 | > 64
CCc1[nH]c2nc(Oc3ccc4cccnc4c3)nc(N3CC4C(N)C4C3)c2c1Cl (stereo not drawn) [701,055] | >64 | >64 | > 64
